Literature values, collected in patent publication US6297274A, “Nonpeptide endothelin antagonists with increased water solubility” (priority 1998, dated 2001).
Where a SMILES comes first, the peptide text is derived from it. [ ]: non-standard residue; d: D form.

Tests used:
[1] = test system: ET-1 induced bronchoconstriction and tracheal smooth muscle contraction; settings: allergic sheep; cited from earlier work
[2] = test system: early cerebral vasospasm following subarachnoid hemorrhage (SAH); settings: in vivo; cited from earlier work
[3] = test system: rat hypoxia model of hypertension; settings: cited from earlier work
[4] = test system: ET-1-induced gastric ulceration; settings: in vivo; cited from earlier work
[5] = test system: early cerebral vasospasm following SAH in the rat; settings: cited from earlier work
[6] = test system: ischemic brain injury in rats; settings: oral; cited from earlier work
[7] = test system: vasoconstriction of the basilar artery; settings: after 7 days, canine two-hemorrhage model; cited from earlier work
liver = settings: cited from earlier work
small intestinal mucosa = settings: rats, local intra-arterial; cited from earlier work

For `CC(C)C[C@@H]1NC(=O)[C@@H](C(C)C)NC(=O)[C@@H]2CCCN2C(=O)[C@@H](CC(=O)O)NC(=O)[C@@H](Cc2c[nH]c3ccccc23)NC1=O` [BQ-123] (cyclo(L[dW][dD]P[dV])), the “ET-1 induced bronchoconstriction and tracheal smooth muscle contraction” value [1] is listed as “shown to block ET-1 induced bronchoconstriction and tracheal smooth muscle contraction in allergic sheep”, the “early cerebral vasospasm following SAH” value [2] is listed as “prevent early cerebral vasospasm following subarachnoid hemorrhage (SAH)” and the “pulmonary vascular resistance and pulmonary arterial pressure” value [3] is listed as “provide protection in a rat hypoxia model of hypertension by lowering the increase in pulmonary vascular resistance and pulmonary arterial pressure”.
For `COc1ccccc1Oc1c(NS(=O)(=O)c2ccc(C(C)(C)C)cc2)nc(-c2ncccn2)nc1OCCO` [Bosentan], the “ET-1-induced changes in gastric mucosal hemodynamics and gastric ulceration” value [4] is listed as “antagonist toward the ET-1-induced changes in gastric mucosal hemodynamics as well as on ET-1-induced gastric ulceration” and the “pulmonary vascular resistance and pulmonary arterial pressure” value [3] is listed as “provide protection in a rat hypoxia model of hypertension by lowering the increase in pulmonary vascular resistance and pulmonary arterial pressure”.
For `COc1cccc(Oc2c(NS(=O)(=O)c3ccc(C(C)(C)C)cc3)ncnc2OCCO)c1` [Ro 46-2005], the “early cerebral vasospasm following SAH” value [5] is listed as “prevent early cerebral vasospasm following SAH in the rat”.
In the case of `CCCOc1ccc2c(c1)[C@@H](c1ccc(OC)cc1OCCO)[C@H](C(=O)O)[C@H]2c1ccc2c(c1)OCO2` [SB 217242], the “reduction of ischemic brain injury” value [6] is given as “Reduction of ischemic brain injury in rats was also demonstrated”.
For FR 139317, the “vasoconstriction of the basilar artery” value [7] is listed as “significantly inhibited the vasoconstriction of the basilar artery”.
In the case of endothelin, the “hepatic vasculature vasoconstriction and hepatic glucose output” value (liver) is listed as “eliciting both sustained vasoconstriction of the hepatic vasculature and a significant increase in hepatic glucose output” and the “small intestinal mucosal damage” value (small intestinal mucosa) is listed as “shown to induce small intestinal mucosal damage in rats in a dose-dependent manner”.
